The target of one test is T1, Renin (Homo sapiens, UniProt P00797).
T1 sequence (P00797 67-406): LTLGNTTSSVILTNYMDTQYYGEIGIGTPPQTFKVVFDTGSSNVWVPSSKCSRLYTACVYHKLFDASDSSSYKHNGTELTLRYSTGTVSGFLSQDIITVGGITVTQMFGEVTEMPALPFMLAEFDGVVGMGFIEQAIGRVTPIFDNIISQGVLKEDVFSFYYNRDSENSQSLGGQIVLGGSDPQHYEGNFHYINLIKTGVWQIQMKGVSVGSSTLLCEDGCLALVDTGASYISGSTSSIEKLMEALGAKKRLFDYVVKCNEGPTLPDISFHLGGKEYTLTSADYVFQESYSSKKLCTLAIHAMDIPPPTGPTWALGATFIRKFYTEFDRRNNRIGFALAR
The experiment in a line: Renin-inhibitory activity, Method I (inhibition of Angiotensin I formation, RIA). Type of test: biochemical. The settings on record: Table 2; 37°C, 4 hours, 1.25 mg/ml; read-out: Rate of inhibiting the formation of Angiotensin I determined by Method I.

A further test deals with T2, High renin plasma (Canis lupus familiaris, UniProt Q6DYE7).
T2 construct: High renin plasma prepared by constriction of the renal artery of a dog anesthetized with Nembutal; from tissue; host or cells: plasma of a dog with constricted renal artery
T2 sequence (Q6DYE7 66-403): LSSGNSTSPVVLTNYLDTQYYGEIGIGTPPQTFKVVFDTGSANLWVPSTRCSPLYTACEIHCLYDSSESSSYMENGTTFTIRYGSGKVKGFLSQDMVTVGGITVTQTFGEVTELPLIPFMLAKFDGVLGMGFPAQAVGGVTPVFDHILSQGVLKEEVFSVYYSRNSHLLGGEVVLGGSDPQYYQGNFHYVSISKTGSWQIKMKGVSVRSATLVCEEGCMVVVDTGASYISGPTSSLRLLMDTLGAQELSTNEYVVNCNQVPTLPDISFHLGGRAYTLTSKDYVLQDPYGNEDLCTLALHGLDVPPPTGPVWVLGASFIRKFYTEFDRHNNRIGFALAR
The experiment in a line: Renin-inhibitory activity, Method II (high renin plasma of dog, inhibition of Angiotensin I formation). Type of test: biochemical. The settings on record: Table 2; 37°C, 4 hours, 1.25 mg/ml; read-out: Rate of inhibiting the formation of Angiotensin I determined by Method II.

For test [1], the system named is renal hypertensive rats. The experiment in a line: Antihypertensive activity in renal hypertensive rats, i.m. (Table 3). Type of test: in vivo, rat. The settings on record: 30 mg/kg/day i.m. How it is done: (§1) An aqueous solution or suspension in peanut oil of each test compound as administered intramuscularly (i.m.) or orally (p.o.) at a dose of 30 to 100 mg/kg (body weight)/day once every morning over the period of 6 to 7 days.
(§2) The blood pressure of each rat was measured daily before and 5 hours after each administration. Furthermore, the blood pressure was measured every morning after drug withdrawal over a period of 3 to 6 days.
(§3) Test compounds (1)-(4) decreased the blood pressure of renal hypertensive rats with a dose of 30 mg/kg/day i.m.. […] The antihypertensive rats with a dose of 100 mg/kg/day p.o..

A further test deals with plasma cholesterol level. As to the kind of experiment: Cholesterol-lowering activity in rats (modified Greenberg method). Format: in vivo, rat. The settings on record: 100 mg/Kg oral once a day, 5 consecutive days. How it is done:
The effect of each of the test compounds on the plasma cholesterol level was examined in rats according to a slightly modified form of the C. M. Greenberg et al. method described in Am. J. Physiol., Vol. 202 (1961), p. 732. Rats were treated once a day with a 100 mg/Kg oral dose for 5 consecutive days instead of 7 days.

The test system of test [2] is renal hypertensive rats. The experiment in a line: Antihypertensive activity in rats, p.o. (Table 4). Type of test: in vivo, rat. The settings on record: 100 mg/kg/day p.o. On the procedure: as §1, §2, §3
The mark [3] stands for this setting: 1st day, 0 h (immediately before administration).
Setting [4] is: 1st day, 5 hours after administration.
[5] abbreviates: 2nd day, 0 h (immediately before administration).
The mark [6] stands for this setting: 2nd day, 5 hours after administration.
The mark [7] stands for this setting: 3rd day, 0 h (immediately before administration).
Setting [8] is: 3rd day, 5 hours after administration.
Setting [9] is: 4th day, 0 h (immediately before administration).
Setting [10] is: 4th day, 5 hours after administration.
Where [11] appears, read: 5th day, 0 h (immediately before administration).
Setting [12] is: 5th day, 5 hours after administration.
[13] abbreviates: 6th day, 0 h (immediately before administration).
The mark [14] stands for this setting: 6th day, 5 hours after administration.

As to `CCC=CCC=CCC=CCCCCCCCC(=O)OCC(COP(=O)(O)OCCN)OC(=O)CCCCCCCCCCCCCCCCC` (racemic) [(b), rac-2-Octadecanoyl-3-(octadeca-9,12,15-trienoyl)glycero-1-phosphoryl ethanolamine, reference compound], the inhibition at 1250 µg/mL at Renin is less than 10%; on High renin plasma it was 25%. Moreover, the “Changes of blood pressure after drug withdrawal” value is -11 mmHg with renal hypertensive rats [1] (1st day after withdrawal), -2 mmHg in the test with renal hypertensive rats [1] (2nd day after withdrawal) and -1 mmHg in the test with renal hypertensive rats [1] (3rd day after withdrawal). Also, the “Changes of blood pressure” value is 0 mmHg in the test on renal hypertensive rats [1] (setting [3]); -32 mmHg in the test with renal hypertensive rats [1] (setting [4]); -4 mmHg with renal hypertensive rats [1] (setting [5]); -25 mmHg in the test with renal hypertensive rats [1] (setting [6]); -8 mmHg in the test on renal hypertensive rats [1] (setting [7]); -34 mmHg in the test on renal hypertensive rats [1] (setting [8]). Also, the “Changes of blood pressure” value is given as -7 mmHg in the test with renal hypertensive rats [1] (setting [9]); -39 mmHg in the test with renal hypertensive rats [1] (setting [10]); -8 mmHg in the test with renal hypertensive rats [1] (setting [11]); -44 mmHg in the test with renal hypertensive rats [1] (setting [12]); -10 mmHg in the test on renal hypertensive rats [1] (setting [13]); -47 mmHg with renal hypertensive rats [1] (setting [14]). The same molecule yielded a Cholesterol-lowering activity in the test on plasma cholesterol level of 0%.
Take `CCCCCC=CCC=CCC=CCC=CCCCC(=O)OCC(COP(=O)(O)OCCN)OC(=O)CCCCCCCCCCCCCCCCC` (racemic) [(a), rac-2-Octadecanoyl-3-(eicosa-5,8,11,14-tetraenoyl)glycero-1-phosphoryl ethanolamine, reference compound]: the values for the inhibition at 1250 µg/mL on Renin and at High renin plasma were less than 10% and 25%, respectively. Also, the “Changes of blood pressure after drug withdrawal” value in the test with renal hypertensive rats [1] (1st day after withdrawal) was -14 mmHg; with renal hypertensive rats [1] (2nd day after withdrawal) it was -3 mmHg; in the test on renal hypertensive rats [1] (3rd day after withdrawal), -1 mmHg. Moreover, the “Changes of blood pressure” value in the test with renal hypertensive rats [1] (setting [3]) was 0 mmHg; with renal hypertensive rats [1] (setting [4]), -26 mmHg; in the test on renal hypertensive rats [1] (setting [6]) it was -35 mmHg; in the test on renal hypertensive rats [1] (setting [7]) it was -5 mmHg; in the test on renal hypertensive rats [1] (setting [8]), -29 mmHg; in the test with renal hypertensive rats [1] (setting [9]) it was -5 mmHg. Also, the “Changes of blood pressure” value is given as -34 mmHg with renal hypertensive rats [1] (setting [10]); -13 mmHg in the test with renal hypertensive rats [1] (setting [11]); -33 mmHg with renal hypertensive rats [1] (setting [12]); -13 mmHg with renal hypertensive rats [1] (setting [13]); -43 mmHg in the test on renal hypertensive rats [1] (setting [14]); 0 mmHg with renal hypertensive rats [2] (setting [3]). Moreover, the “Changes of blood pressure” value is on record as “+2 mmHg” in the test with renal hypertensive rats [2] (setting [4]); “+1 mmHg” in the test on renal hypertensive rats [2] (setting [5]); “+5 mmHg” with renal hypertensive rats [2] (setting [6]); “+2 mmHg” in the test with renal hypertensive rats [2] (setting [7]); -2 mmHg with renal hypertensive rats [2] (setting [8]); “+1 mmHg” in the test with renal hypertensive rats [2] (setting [9]). Also, the “Changes of blood pressure” value in the test with renal hypertensive rats [2] (setting [11]) was “+2 mmHg”; in the test on renal hypertensive rats [2] (setting [12]), “+2 mmHg”; in the test with renal hypertensive rats [2] (setting [13]) it was “+1 mmHg”; in the test on renal hypertensive rats [2] (7th day, 0 h (immediately before administration)) it was “+1 mmHg”; in the test on renal hypertensive rats [2] (7th day, 5 hours after administration), “+2 mmHg”. Further, the “antihypertensive effect, oral administration (in words)” value with renal hypertensive rats [2] was “did not show such an effect”. Moreover, the Cholesterol-lowering activity in the test on plasma cholesterol level was found to be 0%.

The record behind these values is patent US3985875A, “ω-(N-acylamino)alkylphosphoryl ethanolamines, pharmaceutical compositions containing them, and their uses” (Dainippon Pharmaceutical Co., Ltd., priority 1974, dated 1976).
